# Reference: paper PMC12667739 (ACS infectious diseases, 2025)
# Molecular target: T1, ComD (Streptococcus gordonii, UniProt O33646)
# Test: cell-based
row,SMILES,IC50
1,CC[C@H](C)[C@H](N)C(=O)N[C@@H](CCCNC(=N)N)C(=O)N[C@@H](Cc1c[nH]cn1)C(=O)N[C@@H](CCCNC(=N)N)C(=O)N[C@H](C(=O)N[C@@H](CC(N)=O)C(=O)N[C@@H](CC(N)=O)C(=O)N[C@@H](CO)C(=O)N[C@H](C(=O)N[C@@H](Cc1c[nH]c2ccccc12)C(=O)N[C@@H](CCCNC(=N)N)C(=O)N[C@@H](CC(=O)O)C(=O)N[C@H](C(=O)N[C@@H](Cc1ccccc1)C(=O)N[C@@H](CC(C)C)C(=O)N[C@@H](CCCCN)C(=O)N[C@@H](CCCNC(=N)N)C(=O)N[C@@H](CCCCN)C(=O)O)[C@@H](C)CC)[C@@H](C)CC)[C@@H](C)CC [desD1],985 nM

# Molecular target: T1, ComD
# Test: cell-based
# Remark: another data set of the same source
row,SMILES,EC50
1,CC[C@H](C)[C@H](NC(=O)[C@H](CO)NC(=O)[C@H](CC(N)=O)NC(=O)[C@H](CC(N)=O)NC(=O)[C@@H](NC(=O)[C@H](CCCNC(=N)N)NC(=O)[C@H](Cc1c[nH]cn1)NC(=O)[C@H](CCCNC(=N)N)NC(=O)[C@@H](NC(=O)[C@@H](N)CC(=O)O)[C@@H](C)CC)[C@@H](C)CC)C(=O)N[C@@H](Cc1c[nH]c2ccccc12)C(=O)N[C@@H](C)C(=O)N[C@@H](CC(=O)O)C(=O)N[C@H](C(=O)N[C@@H](Cc1ccccc1)C(=O)N[C@@H](CC(C)C)C(=O)N[C@@H](CCCCN)C(=O)N[C@@H](CCCNC(=N)N)C(=O)N[C@@H](CCCCN)C(=O)O)[C@@H](C)CC [Peptide R12A],127 nM
2,CC[C@H](C)[C@H](NC(=O)[C@H](CC(=O)O)NC(=O)[C@H](CCCNC(=N)N)NC(=O)[C@H](Cc1c[nH]c2ccccc12)NC(=O)[C@@H](NC(=O)[C@H](CO)NC(=O)[C@H](CC(N)=O)NC(=O)[C@H](CC(N)=O)NC(=O)[C@@H](NC(=O)[C@H](CCCNC(=N)N)NC(=O)[C@H](Cc1c[nH]cn1)NC(=O)[C@H](CCCNC(=N)N)NC(=O)[C@@H](NC(=O)[C@@H](N)CC(=O)O)[C@@H](C)CC)[C@@H](C)CC)[C@@H](C)CC)C(=O)N[C@@H](Cc1ccccc1)C(=O)N[C@@H](CC(C)C)C(=O)N[C@@H](CCCCN)C(=O)N[C@@H](CCCNC(=N)N)C(=O)O [desK19],309 nM
3,CC[C@H](C)[C@H](NC(=O)[C@H](CC(=O)O)NC(=O)[C@H](CCCNC(=N)N)NC(=O)[C@H](Cc1c[nH]c2ccccc12)NC(=O)[C@@H](NC(=O)[C@H](CO)NC(=O)[C@H](CC(N)=O)NC(=O)[C@H](CC(N)=O)NC(=O)[C@@H](NC(=O)[C@H](CCCNC(=N)N)NC(=O)[C@H](Cc1c[nH]cn1)NC(=O)[C@H](CCCNC(=N)N)NC(=O)[C@@H](NC(=O)[C@@H](N)CC(=O)O)[C@@H](C)CC)[C@@H](C)CC)[C@@H](C)CC)C(=O)N[C@@H](Cc1ccccc1)C(=O)N[C@@H](CC(C)C)C(=O)N[C@@H](C)C(=O)N[C@@H](CCCNC(=N)N)C(=O)N[C@@H](CCCCN)C(=O)O [Peptide K17A],426 nM
4,CC[C@H](C)[C@H](NC(=O)[C@H](CCCNC(=N)N)NC(=O)[C@H](C)NC(=O)[C@H](CCCNC(=N)N)NC(=O)[C@@H](NC(=O)[C@@H](N)CC(=O)O)[C@@H](C)CC)C(=O)N[C@@H](CC(N)=O)C(=O)N[C@@H](CC(N)=O)C(=O)N[C@@H](CO)C(=O)N[C@H](C(=O)N[C@@H](Cc1c[nH]c2ccccc12)C(=O)N[C@@H](CCCNC(=N)N)C(=O)N[C@@H](CC(=O)O)C(=O)N[C@H](C(=O)N[C@@H](Cc1ccccc1)C(=O)N[C@@H](CC(C)C)C(=O)N[C@@H](CCCCN)C(=O)N[C@@H](CCCNC(=N)N)C(=O)N[C@@H](CCCCN)C(=O)O)[C@@H](C)CC)[C@@H](C)CC [Peptide H4A],722 nM
5,CC[C@H](C)[C@H](NC(=O)[C@H](CCCNC(=N)N)NC(=O)[C@H](Cc1c[nH]cn1)NC(=O)[C@H](CCCNC(=N)N)NC(=O)[C@@H](NC(=O)[C@@H](N)CC(=O)O)[C@@H](C)CC)C(=O)N[C@@H](CC(N)=O)C(=O)N[C@@H](C)C(=O)N[C@@H](CO)C(=O)N[C@H](C(=O)N[C@@H](Cc1c[nH]c2ccccc12)C(=O)N[C@@H](CCCNC(=N)N)C(=O)N[C@@H](CC(=O)O)C(=O)N[C@H](C(=O)N[C@@H](Cc1ccccc1)C(=O)N[C@@H](CC(C)C)C(=O)N[C@@H](CCCCN)C(=O)N[C@@H](CCCNC(=N)N)C(=O)N[C@@H](CCCCN)C(=O)O)[C@@H](C)CC)[C@@H](C)CC [Peptide N8A],692 nM
6,CC[C@H](C)[C@H](NC(=O)[C@H](CC(=O)O)NC(=O)[C@H](CCCNC(=N)N)NC(=O)[C@H](Cc1c[nH]c2ccccc12)NC(=O)[C@@H](NC(=O)[C@H](CO)NC(=O)[C@H](CC(N)=O)NC(=O)[C@H](CC(N)=O)NC(=O)[C@@H](NC(=O)[C@H](CCCNC(=N)N)NC(=O)[C@H](Cc1c[nH]cn1)NC(=O)[C@H](CCCNC(=N)N)NC(=O)[C@@H](NC(=O)[C@@H](N)CC(=O)O)[C@@H](C)CC)[C@@H](C)CC)[C@@H](C)CC)C(=O)N[C@@H](Cc1ccccc1)C(=O)N[C@@H](CC(C)C)C(=O)N[C@@H](CCCCN)C(=O)N[C@@H](C)C(=O)N[C@@H](CCCCN)C(=O)O [Peptide R18A],406 nM
7,CC[C@H](C)[C@H](NC(=O)[C@H](CC(=O)O)NC(=O)[C@H](CCCNC(=N)N)NC(=O)[C@H](Cc1c[nH]c2ccccc12)NC(=O)[C@@H](NC(=O)[C@H](CO)NC(=O)[C@H](CC(N)=O)NC(=O)[C@H](CC(N)=O)NC(=O)[C@@H](NC(=O)[C@H](CCCNC(=N)N)NC(=O)[C@H](Cc1c[nH]cn1)NC(=O)[C@H](CCCNC(=N)N)NC(=O)[C@@H](NC(=O)[C@@H](N)CC(=O)O)[C@@H](C)CC)[C@@H](C)CC)[C@@H](C)CC)C(=O)N[C@@H](Cc1ccccc1)C(=O)N[C@@H](C)C(=O)N[C@@H](CCCCN)C(=O)N[C@@H](CCCNC(=N)N)C(=O)N[C@@H](CCCCN)C(=O)O [Peptide L16A],127 nM
8,CC[C@H](C)[C@H](NC(=O)[C@H](CCCNC(=N)N)NC(=O)[C@H](Cc1c[nH]cn1)NC(=O)[C@H](CCCNC(=N)N)NC(=O)[C@@H](NC(=O)[C@@H](N)CC(=O)O)[C@@H](C)CC)C(=O)N[C@@H](C)C(=O)N[C@@H](CC(N)=O)C(=O)N[C@@H](CO)C(=O)N[C@H](C(=O)N[C@@H](Cc1c[nH]c2ccccc12)C(=O)N[C@@H](CCCNC(=N)N)C(=O)N[C@@H](CC(=O)O)C(=O)N[C@H](C(=O)N[C@@H](Cc1ccccc1)C(=O)N[C@@H](CC(C)C)C(=O)N[C@@H](CCCCN)C(=O)N[C@@H](CCCNC(=N)N)C(=O)N[C@@H](CCCCN)C(=O)O)[C@@H](C)CC)[C@@H](C)CC [Peptide N7A],203 nM
9,CC[C@H](C)[C@H](NC(=O)[C@H](CC(=O)O)NC(=O)[C@H](CCCNC(=N)N)NC(=O)[C@H](Cc1c[nH]c2ccccc12)NC(=O)[C@@H](NC(=O)[C@H](CO)NC(=O)[C@H](CC(N)=O)NC(=O)[C@H](CC(N)=O)NC(=O)[C@@H](NC(=O)[C@H](CCCNC(=N)N)NC(=O)[C@H](Cc1c[nH]cn1)NC(=O)[C@H](CCCNC(=N)N)NC(=O)[C@@H](NC(=O)[C@@H](N)CC(=O)O)[C@@H](C)CC)[C@@H](C)CC)[C@@H](C)CC)C(=O)N[C@@H](Cc1ccccc1)C(=O)N[C@@H](CC(C)C)C(=O)N[C@@H](CCCCN)C(=O)N[C@@H](CCCNC(=N)N)C(=O)N[C@@H](C)C(=O)O [Peptide K19A],272 nM
